Target: human HSV DNA polymerase UL30 (Human herpesvirus 1 (strain 17) (HHV-1) (Human herpes simplex virus 1), UniProt P04293)
Assay: biochemical
Details: 625 pM HSV polymerase, 20 minutes at room temperature; read-out: HSV-polymerase Biochemical IC50

Compared with `CN(C(CO)CO)S(=O)(=O)C1(CN2CCc3c(C(=O)NCc4ccc(C#N)cc4)nn(C)c3C2=O)CC1` [Example 147, N-(4-Cyanobenzyl)-6-((1-(N-(1,3-dihydroxypropan-2-yl)-N-methylsulfamoyl)cyclopropyl)methyl)-1-methyl-7-oxo-4,5,6,7-tetrahydro-1H-pyrazolo[3,4-c]pyridine-3-carboxamide], `Cn1nc(C(=O)NCc2ccc(C#N)cc2)c2c1C(=O)N(CC1(S(=O)(=O)C(C)(CN)CO)CC1)CC2` (centres unmarked) [Example 183, 6-((1-((1-Amino-3-hydroxy-2-methylpropan-2-yl)sulfonyl)cyclopropyl)methyl)-N-(4-cyanobenzyl)-1-methyl-7-oxo-4,5,6,7-tetrahydro-1H-pyrazolo[3,4-c]pyridine-3-carboxamide] is 9.9-fold lower in IC50: 644 nM for the first, 65 nM for the second. The second is the more potent here.

`CN(C)CC(=O)NCC(C)(C)S(=O)(=O)C1(CN2CCc3c(C(=O)NCc4ccc(C#N)cc4)nn(C)c3C2=O)CC1` [Example 78, N-(4-Cyanobenzyl)-6-((1-((1-(2-(dimethylamino)acetamido)-2-methylpropan-2-yl)sulfonyl)cyclopropyl)methyl)-1-methyl-7-oxo-4,5,6,7-tetrahydro-1H-pyrazolo[3,4-c]pyridine-3-carboxamide] and `Cn1nc(C(=O)NCc2ccc(C#N)cc2)c2c1C(=O)N(CC1(S(=O)(=O)C(C)(C)CNC(=O)C(C)(C)N)CC1)CC2` [Example 77, 6-((1-((1-(2-Amino-2-methylpropanamido)-2-methylpropan-2-yl)sulfonyl)cyclopropyl)methyl)-N-(4-cyanobenzyl)-1-methyl-7-oxo-4,5,6,7-tetrahydro-1H-pyrazolo[3,4-c]pyridine-3-carboxamide] are within 1.5-fold of each other in IC50: 206 nM for the first, 142 nM for the second.

Compared with `CC1(S(=O)(=O)C2(CN3CCc4c(C(=O)NCc5ccc(C#N)cc5)nn(CCCO)c4C3=O)CC2)CC1` [Example 237, N-(4-Cyanobenzyl)-1-(3-hydroxypropyl)-6-((1-((1-methylcyclopropyl)sulfonyl)cyclopropyl)methyl)-7-oxo-4,5,6,7-tetrahydro-1H-pyrazolo[3,4-c]pyridine-3-carboxamide], `Cn1nc(C(=O)NCc2ccc(C#N)cc2)c2c1C(=O)N(CC1(S(=O)(=O)C3(CN)COC3)CC1)CC2` [Example 174, 6-((1-((3-(Aminomethyl)oxetan-3-yl)sulfonyl)cyclopropyl)methyl)-N-(4-cyanobenzyl)-1-methyl-7-oxo-4,5,6,7-tetrahydro-1H-pyrazolo[3,4-c]pyridine-3-carboxamide] is 2.2-fold higher in IC50: 41 nM for the first, 92 nM for the second. The first is the more potent here.

Compared with `Cn1nc(C(=O)NCc2ccc(Cl)cc2)c2c1C(=O)N(CC1(S(=O)(=O)NC(C)(CO)CO)CC1)CC2` [Example 153, N-(4-Chlorobenzyl)-6-((1-(N-(1,3-dihydroxy-2-methylpropan-2-yl)sulfamoyl)cyclopropyl)methyl)-1-methyl-7-oxo-4,5,6,7-tetrahydro-1H-pyrazolo[3,4-c]pyridine-3-carboxamide], `CNS(=O)(=O)C1(CN2CCc3c(C(=O)NCc4ccc(Cl)cc4)nn(C)c3C2=O)CC1` [Example 151, N-(4-Chlorobenzyl)-1-methyl-6-((1-(N-methylsulfamoyl)cyclopropyl)methyl)-7-oxo-4,5,6,7-tetrahydro-1H-pyrazolo[3,4-c]pyridine-3-carboxamide] is 2.5-fold lower in IC50: 292 nM for the first, 118 nM for the second.

Compared with `Cn1nc(C(=O)NCc2ccc(C#N)cc2)c2c1C(=O)N(CC1(S(=O)(=O)C(C)(C)COCC(C)(C)N)CC1)CC2` [Example 103, 6-((1-((1-(2-Amino-2-methylpropoxy)-2-methylpropan-2-yl)sulfonyl)cyclopropyl)methyl)-N-(4-cyanobenzyl)-1-methyl-7-oxo-4,5,6,7-tetrahydro-1H-pyrazolo[3,4-c]pyridine-3-carboxamide], `Cn1nc(C(=O)NCc2ccc(C#N)cc2)c2c1C(=O)N(CC1(S(=O)(=O)C(C)(C)COC(F)(F)CN)CC1)CC2` [Example 85, 6-((1-((1-(2-Amino-1,1-difluoroethoxy)-2-methylpropan-2-yl)sulfonyl)cyclopropyl)methyl)-N-(4-cyanobenzyl)-1-methyl-7-oxo-4,5,6,7-tetrahydro-1H-pyrazolo[3,4-c]pyridine-3-carboxamide] is 2.4-fold lower in IC50: 117 nM for the first, 49 nM for the second.

Compared with `CC(C)(CO)S(=O)(=O)C1(CN2CCc3c(C(=O)NCc4ccc(C#N)cc4)nn(CCOCCBr)c3C2=O)CC1` [Example 238, 1-(2-(2-Bromoethoxy)ethyl)-N-(4-cyanobenzyl)-6-((1-((1-hydroxy-2-methylpropan-2-yl)sulfonyl)cyclopropyl)methyl)-7-oxo-4,5,6,7-tetrahydro-1H-pyrazolo[3,4-c]pyridine-3-carboxamide], `Cn1nc(C(=O)NCc2ccc(C#N)cc2)c2c1C(=O)N(CC1(S(=O)(=O)NC(C)(C)CO)CC1)CC2` [Example 149, N-(4-Cyanobenzyl)-6-((1-(N-(1-hydroxy-2-methylpropan-2-yl)sulfamoyl)cyclopropyl)methyl)-1-methyl-7-oxo-4,5,6,7-tetrahydro-1H-pyrazolo[3,4-c]pyridine-3-carboxamide] is 10-fold higher in IC50: 16 nM for the first, 161 nM for the second.

Compared with `Cn1nc(C(=O)NCc2ccc(Cl)cc2)c2c1C(=O)N(CC1(S(=O)(=O)Nc3ccccn3)CC1)CC2` [Example 158], `COc1cccnc1NS(=O)(=O)C1(CN2CCc3c(C(=O)NCc4ccc(C#N)cc4)nn(C)c3C2=O)CC1` [Example 159] is 7.3-fold higher in IC50: 58 nM for the first, 423 nM for the second.

`Cc1ccc(CNC(=O)c2nn(C)c3c2CCN(CC2(S(=O)(=O)C4CC4)CC2)C3=O)cc1` [Example 8, 6-((1-(Cyclopropylsulfonyl)cyclopropyl)methyl)-1-methyl-N-(4-methylbenzyl)-7-oxo-4,5,6,7-tetrahydro-1H-pyrazolo[3,4-c]pyridine-3-carboxamide] and `Cc1cc(CNC(=O)c2nn(C)c3c2CCN(CC2(S(=O)(=O)C4CC4)CC2)C3=O)ccc1C#N` [Example 11, N-(4-Cyano-3-methylbenzyl)-6-((1-(cyclopropylsulfonyl)cyclopropyl)methyl)-1-methyl-7-oxo-4,5,6,7-tetrahydro-1H-pyrazolo[3,4-c]pyridine-3-carboxamide] are within 1.5-fold of each other in IC50: 1630 nM for the first, 2230 nM for the second.

Going from `C[C@@H](N)C(=O)NCC(C)(C)S(=O)(=O)C1(CN2CCc3c(C(=O)NCc4ccc(C#N)cc4)nn(C)c3C2=O)CC1` [Example 75, (R)-6-((1-((1-(2-Aminopropanamido)-2-methylpropan-2-yl)sulfonyl)cyclopropyl)methyl)-N-(4-cyanobenzyl)-1-methyl-7-oxo-4,5,6,7-tetrahydro-1H-pyrazolo[3,4-c]pyridine-3-carboxamide] to `Cn1nc(C(=O)NCc2ccc(C#N)cc2)c2c1C(=O)N(CC1(S(=O)(=O)C(C)(C)C#N)CC1)CC2` [Example 59, N-(4-Cyanobenzyl)-6-((1-((2-cyanopropan-2-yl)sulfonyl)cyclopropyl)methyl)-1-methyl-7-oxo-4,5,6,7-tetrahydro-1H-pyrazolo[3,4-c]pyridine-3-carboxamide], the IC50 falls from 133 nM to 23 nM (5.8-fold). The second is the more potent here.

`Cn1nc(C(=O)NCc2ccc(C#N)cc2)c2c1C(=O)N(CC1(S(=O)(=O)NC3CC3)CC1)CC2` [Example 129, N-(4-cyanobenzyl)-6-((1-(N-cyclopropylsulfamoyl)cyclopropyl)methyl)-1-methyl-7-oxo-4,5,6,7-tetrahydro-1H-pyrazolo[3,4-c]pyridine-3-carboxamide] and `Cn1nc(C(=O)NCc2ccc(C#N)cc2)c2c1C(=O)N(CC1(S(=O)(=O)N3CC[C@@H](N)C3)CC1)CC2` [Example 141, (R)-6-((1-((3-Aminopyrrolidin-1-yl)sulfonyl)cyclopropyl)methyl)-N-(4-cyanobenzyl)-1-methyl-7-oxo-4,5,6,7-tetrahydro-1H-pyrazolo[3,4-c]pyridine-3-carboxamide] are within 1.5-fold of each other in IC50: 213 nM for the first, 192 nM for the second.

Going from `O=C(NCc1ccc(Cl)cc1)c1n[nH]c2c1CCN(CC1(S(=O)(=O)C3CC3)CC1)C2=O` [Example 44, N-(4-Chlorobenzyl)-6-((1-(cyclopropylsulfonyl)cyclopropyl)methyl)-7-oxo-4,5,6,7-tetrahydro-1H-pyrazolo[3,4-c]pyridine-3-carboxamide] to `Cn1nc(C(=O)NCc2ccc(Cl)cc2)c2c1C(=O)N(CC1(S(=O)(=O)C(F)F)CC1)CC2` [Example 39, N-(4-Chlorobenzyl)-6-((1-((difluoromethyl)sulfonyl)cyclopropyl)methyl)-1-methyl-7-oxo-4,5,6,7-tetrahydro-1H-pyrazolo[3,4-c]pyridine-3-carboxamide], the IC50 rises from 137 nM to 625 nM (4.6-fold). The first is the more potent here.

Compared with `Cn1nc(C(=O)NCc2ccc(C#N)cc2)c2c1C(=O)N(CC1(S(=O)(=O)N3C[C@@H](N)[C@H](O)C3)CC1)CC2` [Example 139, 6-((1-(((3R,4R)-3-Amino-4-hydroxypyrrolidin-1-yl)sulfonyl)cyclopropyl)methyl)-N-(4-cyanobenzyl)-1-methyl-7-oxo-4,5,6,7-tetrahydro-1H-pyrazolo[3,4-c]pyridine-3-carboxamide], `Cn1nc(C(=O)NCc2ccc(C#N)cc2)c2c1C(=O)N(CC1(S(=O)(=O)C(C)(C)CN3CC(O)C3)CC1)CC2` [Example 65, N-(4-Cyanobenzyl)-6-((1-((1-(3-hydroxyazetidin-1-yl)-2-methylpropan-2-yl)sulfonyl)cyclopropyl)methyl)-1-methyl-7-oxo-4,5,6,7-tetrahydro-1H-pyrazolo[3,4-c]pyridine-3-carboxamide] is 2.8-fold lower in IC50: 143 nM for the first, 52 nM for the second.

Compared with `Cn1nc(-c2noc(Cc3ccc(C#N)cc3)n2)c2c1C(=O)N(CC1(S(=O)(=O)C3CC3)CC1)CC2` [Example 28, 4-((3-(6-((1-(Cyclopropylsulfonyl)cyclopropyl)methyl)-1-methyl-7-oxo-4,5,6,7-tetrahydro-1H-pyrazolo[3,4-c]pyridin-3-yl)-1,2,4-oxadiazol-5-yl)methyl)benzonitrile], `CO[C@@H]1CCN(CC(C)(C)S(=O)(=O)C2(CN3CCc4c(C(=O)NCc5ccc(C#N)cc5)nn(C)c4C3=O)CC2)C1` [Example 62, (R)-N-(4-cyanobenzyl)-6-((1-((1-(3-methoxypyrrolidin-1-yl)-2-methylpropan-2-yl)sulfonyl)cyclopropyl)methyl)-1-methyl-7-oxo-4,5,6,7-tetrahydro-1H-pyrazolo[3,4-c]pyridine-3-carboxamide] is 4.8-fold higher in IC50: 29 nM for the first, 139 nM for the second. The first is the more potent here.

From US20250353820A1, “ANTIVIRAL PYRAZOLOPYRIDINONE COMPOUNDS” (Novartis AG, priority 2019, published 2025)
